According to ChEMBL document CHEMBL1151034, “De novo design of nonpeptidic HIV-1 protease inhibitors: Incorporation of structural water” (Bioorg Med Chem Lett, 1994):

Legend:
[1] = target: Human immunodeficiency virus type 1 protease (Human immunodeficiency virus 1, UniProt Q72874); experiment: (§1) Inhibitory activity against HIV-1 protease
[2] = target: Human immunodeficiency virus type 1 protease (Human immunodeficiency virus 1) (UniProt Q72874); experiment: as §1; settings: concentration not given here
[3] = target: Human immunodeficiency virus type 1 protease (Human immunodeficiency virus 1) (UniProt Q72874); settings: 100 uM

| inhibition [2] | Compound | IC50 [1] | inhibition [3] |
| --- | --- | --- | --- |
| – | C=CCN1C(=O)N(CC=C)[C@@H](Cc2ccccc2)C(O)[C@@H]1Cc1ccccc1 | 53 µM | – |
| 6% | O=C1N(Cc2ccc3ccccc3c2)[C@@H](Cc2ccccc2)C(O)[C@H](Cc2ccccc2)N1Cc1ccc2ccccc2c1 | – | – |
| – | O=C1N[C@@H](Cc2ccccc2)C(O)[C@H](Cc2ccccc2)N1 | > 100 µM | 35% |
| – | O=C1N(Cc2ccccc2)[C@@H](Cc2ccccc2)C(O)[C@H](Cc2ccccc2)N1Cc1ccccc1 | 89 µM | – |
| – | O=C1N(CC2CC2)[C@@H](Cc2ccccc2)C(O)[C@H](Cc2ccccc2)N1CC1CC1 | 9 µM | – |
